Results published in ChEMBL document CHEMBL5385897, “Computer-Aided drug design of new 2-amino-thiophene derivatives as anti-leishmanial agents” (Eur J Med Chem, 2023).

Columns and labels:
[1] = Selectivity index, ratio of CC50 for cytotoxicity against mouse J774.A1 cells to IC50 for antileishmanial activity against Leishmania amazonensis promastigote assessed as inhibition of parasite growth; type: toxicity, cell-based; conditions: read-out: Ratio CC50/IC50
[2] = Cytotoxicity against mouse J774.A1 cells incubated for 72 hrs by MTT colorimetric assay; type: toxicity, cell-based
[3] = Selectivity index, ratio of CC50 for cytotoxicity against mouse J774.A1 cells to IC50 for antileishmanial activity against Leishmania amazonensis axenic amastigote assessed as inhibition of parasite growth; type: toxicity, cell-based; conditions: read-out: Ratio CC50/IC50
Leishmania amazonensis [4] = test: Antileishmanial activity against Leishmania amazonensis promastigote assessed as inhibition of parasite growth incubated for 72 hrs by MTT colorimetric assay; type: functional, organism-based
Leishmania amazonensis [5] = test: Antileishmanial activity against Leishmania amazonensis axenic amastigote assessed as inhibition of parasite growth incubated for 72 hrs by MTT colorimetric assay; type: functional, organism-based

Row | SMILES | selectivity ratio [1] | CC50 at 72 h [2] [µM] | selectivity ratio [3] | IC50 (Leishmania amazonensis [4]) [µM] | IC50 (Leishmania amazonensis [5]) [µM]
1 | N#Cc1c(N)sc2c1CCCCCC2 | 36.6 | 43.9 | 4.47 | 1.2 | 9.8
2 | N#Cc1c(N)sc2c1CCCCC2 | 31.1 | 99.5 | 35.7 | – | 2.79
3 | N#Cc1c(N)sc2c1CCCC2 | – | – | – | – | > 10
4 | COc1ccc2[nH]cc(/C=N/c3sc4c(c3C#N)CCCCCC4)c2c1 | – | – | – | 900 | 2160
5 | N#Cc1c(/N=C/c2c[nH]c3ccc(Br)cc23)sc2c1CCC2 | – | > 100 | – | > 10 | > 10
6 | N#Cc1ccsc1/N=C/c1c[nH]c2ccc(Br)cc12 | 8.73 | 84.7 | 119 | 9.7 | 0.71
7 | N#Cc1c(/N=C/c2c[nH]c3ccc(Br)cc23)sc2c1CCNC2 | – | 11.2 | – | > 10 | > 10
8 | N#Cc1c(/N=C/c2c[nH]c3ccc(Br)cc23)sc2c1CCCCCCCCCC2 | – | > 100 | – | > 10 | > 10
9 | N#Cc1c(/N=C/c2c[nH]c3ccc(Br)cc23)sc2c1CCCCCC2 | > 21.1 | > 100 | > 26.3 | 4.75 | 3.8
10 | CC1CCc2c(sc(/N=C/c3c[nH]c4ccc(Br)cc34)c2C#N)C1 (stereo unspecified) | > 10.1 | > 100 | > 11.5 | 9.9 | 8.72
